For 18 compounds, Papp results are on record in patent US20230096766A1, “AMINO ACID HAVING FUNCTIONAL GROUP CAPABLE OF INTERMOLECULAR HYDROGEN BONDING, PEPTIDE COMPOUND CONTAINING SAME AND METHOD FOR PRODUCTION THEREOF” (Chugai Seiyaku Kabushiki Kaisha, priority 2018, published 2023).

*1 amine or outer side, *2 acyl side, *3 side chain or, on linkers, in order; H or OH if unused. Where a SMILES comes first, the peptide text is derived from it. Bridges are numbered along the chain shown (N, C = ends). [ ]: non-standard residue; d: D form. The star is where a group is joined. ξ: configuration not given here. NMePhe(3-Cl) = CN[C@@H](Cc1cccc(Cl)c1)C(=O)O; NMehPhe = CN[C@@H](CCc1ccccc1)C(=O)O; NMeF = CN[C@@H](Cc1ccccc1)C(=O)O; NMeGABA = CN(CCCC(=O)[*:2])[*:1]; NMeI = CC[C@H](C)[C@H](NC)C(=O)O; Butyl(3-Me,3-OH) = CC(C)(O)CC*; NMeL = CN[C@@H](CC(C)C)C(=O)O; Propyl(2R-OH) = C[C@@H](O)C*; NMeV = CN[C@H](C(=O)O)C(C)C; ξIle = CC[C@H](C)C(N)C(=O)O; NMeA = CN[C@@H](C)C(=O)O; Piperidide = C1CCN(*)CC1; NBuGly = CCCCNCC(=O)O; Isopentyl = CC(C)CC*; NPrGly = CCCNCC(=O)O; X3 = C[C@H](O)C*; Sar = CNCC(=O)O; tBu = CC(C)(C)*

As usually defined, the Papp is the rate of passage across a membrane or cell layer, normalised by area and donor concentration. High values mean fast passage, low ones slow passage.

A short description of the series: in vitro. The following applies: human, Caco-2, Caco-2 (cm/sec).
Take `CC(C)C[C@@H]1NC(=O)[C@H](CCc2ccccc2)N(C)C(=O)[C@@H](C(C)C)NC(=O)C[C@@H](C(=O)N2CCCCC2)NC(=O)[C@H](CC(C)C)N(C)C(=O)[C@H](Cc2ccccc2)N(C)C(=O)[C@H](COCCC(C)(C)O)NC(=O)[C@H](CC(C)C)N(C)C(=O)CN(C)C(=O)[C@H]([C@@H](C)O)NC(=O)[C@H](CC(C)C)N(C)C1=O` [AP60] ([dV][NMehPhe]L[NMeL]T[Sar][NMeL]S(Butyl(3-Me,3-OH))[NMeF][NMeL]D-Piperidide; lactam N-11): the Papp came out at 1 ×10⁻⁶ cm/s.

As for `CCCN1CC(=O)N(C)[C@@H](CC(C)C)C(=O)N[C@@H](COCCC(C)C)C(=O)N(C)[C@@H](Cc2ccccc2)C(=O)N(C)[C@@H](CC(C)C)C(=O)N[C@H](C(=O)N2CCCCC2)CC(=O)N[C@H](C(C)C)C(=O)N(C)[C@@H](Cc2ccccc2)C(=O)N[C@@H](COC[C@H](C)O)C(=O)N(C)[C@@H](CC(C)C)C(=O)N[C@@H]([C@@H](C)O)C1=O` [AP61] ([dV][NMeF]S(X3)[NMeL]T[NPrGly][NMeL]S(Isopentyl)[NMeF][NMeL]D-Piperidide; lactam N-11), the Papp turned out to be 0.51 ×10⁻⁶ cm/s.

`CC(C)CCOC[C@@H]1NC(=O)[C@H](Cc2cccc(Cl)c2)N(C)C(=O)[C@H](Cc2ccccc2)N(C)C(=O)[C@H](COC[C@H](C)O)NC(=O)[C@H](CC(C)C)N(C)C(=O)CCCN(C)C(=O)C[C@@H](C(=O)N2CCCCC2)NC(=O)[C@H](CC(C)C)N(C)C(=O)[C@H](CC(C)C)N(C)C(=O)[C@H]([C@@H](C)O)NC(=O)[C@H](CC(C)C)N(C)C1=O` [AP63] ([NMeGABA][NMeL]S(X3)[NMeF][NMePhe(3-Cl)]S(Isopentyl)[NMeL]T[NMeL][NMeL]D-Piperidide; lactam N-11): the Papp turned out to be 0.14 ×10⁻⁶ cm/s.

With `CC[C@H](C)[C@@H]1NC(=O)[C@H](CC(C)C)N(C)C(=O)CCCN(C)C(=O)C[C@@H](C(=O)N2CCCCC2)NC(=O)[C@H](CC(C)C)N(C)C(=O)[C@H](CC(C)C)N(C)C(=O)[C@H]([C@@H](C)O)NC(=O)[C@H](CC(C)C)N(C)C(=O)[C@H](COC[C@H](C)O)NC(=O)[C@H](Cc2cccc(Cl)c2)N(C)C(=O)[C@H](Cc2ccccc2)N(C)C1=O` [AP64] ([NMeGABA][NMeL]I[NMeF][NMePhe(3-Cl)]S(X3)[NMeL]T[NMeL][NMeL]D-Piperidide; lactam N-11), the Papp was 0.35 ×10⁻⁶ cm/s.

For the compound `CCCN1CC(=O)N(C)[C@@H](CC(C)C)C(=O)N[C@H](C(=O)N2CCCCC2)CC(=O)N(C)[C@@H](C)C(=O)N[C@@H](COC[C@H](C)O)C(=O)N(C)[C@@H](CC(C)C)C(=O)N(C)[C@@H](Cc2cccc(Cl)c2)C(=O)N[C@@H](CC(C)C)C(=O)N(C)[C@@H](Cc2ccccc2)C(=O)N(C)[C@@H]([C@@H](C)CC)C(=O)N[C@@H]([C@@H](C)O)C1=O` [AP65] ([NMeA]S(X3)[NMeL][NMePhe(3-Cl)]L[NMeF][NMeI]T[NPrGly][NMeL]D-Piperidide; lactam N-11), the apparent permeability coefficient (Papp) was 1.2 ×10⁻⁶ cm/s.

Compound `CC[C@H](C)[C@H]1C(=O)N[C@@H]([C@@H](C)O)C(=O)N(C)CC(=O)N(C)[C@@H](CC(C)C)C(=O)N[C@H](C(=O)N2CCCCC2)CC(=O)N(C)[C@@H](C(C)C)C(=O)N[C@@H](CC(C)C)C(=O)N(C)[C@@H](CC(C)C)C(=O)N(C)[C@@H](Cc2ccccc2)C(=O)N[C@@H](COC[C@H](C)O)C(=O)N(C)[C@@H](Cc2ccccc2)C(=O)N1C` [AP66] ([NMeV]L[NMeL][NMeF]S(X3)[NMeF][NMeI]T[Sar][NMeL]D-Piperidide; lactam N-11) displayed a Papp of 0.68 ×10⁻⁶ cm/s.

Regarding `CCCN1CC(=O)N(C)[C@@H](Cc2ccccc2)C(=O)N(C)[C@@H](CC(C)C)C(=O)N[C@@H](COCCC(C)C)C(=O)N(C)[C@@H](CC(C)C)C(=O)N[C@H](C(=O)N2CCCCC2)CC(=O)N(C)CC(=O)N(C)[C@@H](Cc2cccc(Cl)c2)C(=O)N[C@@H](COC[C@H](C)O)C(=O)N(C)[C@@H](CC(C)C)C(=O)N[C@@H]([C@@H](C)O)C1=O` [AP67] ([Sar][NMePhe(3-Cl)]S(X3)[NMeL]T[NPrGly][NMeF][NMeL]S(Isopentyl)[NMeL]D-Piperidide; lactam N-11), the apparent permeability (Papp) is 0.71 ×10⁻⁶ cm/s.

For `CCCN1CC(=O)N(C)[C@@H](Cc2cccc(Cl)c2)C(=O)N(C)[C@@H](CC(C)C)C(=O)N[C@@H](COC[C@H](C)O)C(=O)N(C)[C@@H](CC(C)C)C(=O)N[C@H](C(=O)N2CCCCC2)CC(=O)N(C)CC(=O)N(C)[C@@H](Cc2ccccc2)C(=O)NC([C@@H](C)CC)C(=O)N(C)[C@@H](CC(C)C)C(=O)N[C@@H]([C@@H](C)O)C1=O` (stereo partly drawn) [AP68] ([Sar][NMeF][ξIle][NMeL]T[NPrGly][NMePhe(3-Cl)][NMeL]S(X3)[NMeL]D-Piperidide; lactam N-11), the Papp came to 0.24 ×10⁻⁶ cm/s.

Turning to `CC[C@H](C)[C@H]1C(=O)N[C@@H]([C@@H](C)O)C(=O)N(C)CC(=O)N(C)[C@@H](CC(C)C)C(=O)N[C@H](C(=O)N2CCCCC2)CC(=O)N(C)[C@@H](C(C)C)C(=O)N[C@@H](COC[C@H](C)O)C(=O)N(C)[C@@H](CC(C)C)C(=O)N(C)[C@@H](Cc2cccc(Cl)c2)C(=O)N[C@@H](CC(C)C)C(=O)N(C)[C@@H](Cc2ccccc2)C(=O)N1C` [AP69] ([NMeV]S(X3)[NMeL][NMePhe(3-Cl)]L[NMeF][NMeI]T[Sar][NMeL]D-Piperidide; lactam N-11), the apparent permeability coefficient (Papp) came out at 0.7 ×10⁻⁶ cm/s.

Compound `CCCN1CC(=O)N(C)[C@@H](CC(C)C)C(=O)N[C@@H](COC[C@H](C)O)C(=O)N(C)[C@@H](Cc2cccc(Cl)c2)C(=O)N(C)[C@@H](C(C)C)C(=O)N[C@H](C(=O)N2CCCCC2)CC(=O)N[C@H](C(C)C)C(=O)N(C)[C@@H](Cc2ccccc2)C(=O)N[C@@H](CC(C)C)C(=O)N(C)[C@@H](CC(C)C)C(=O)N[C@@H]([C@@H](C)O)C1=O` [AP70] ([dV][NMeF]L[NMeL]T[NPrGly][NMeL]S(X3)[NMePhe(3-Cl)][NMeV]D-Piperidide; lactam N-11) registered a Papp of 0.75 ×10⁻⁶ cm/s.

In the case of `CCCCN1CC(=O)N(C)[C@@H](CC(C)C)C(=O)N[C@@H](COC(C)(C)C)C(=O)N(C)[C@@H](Cc2ccccc2)C(=O)N(C)[C@@H](CC(C)C)C(=O)N[C@H](C(=O)N2CCCCC2)CC(=O)N[C@H](C(C)C)C(=O)N(C)[C@@H](Cc2ccccc2)C(=O)N[C@@H](COC[C@@H](C)O)C(=O)N(C)[C@@H](CC(C)C)C(=O)N[C@@H]([C@@H](C)O)C1=O` [AP71] ([dV][NMeF]S(Propyl(2R-OH))[NMeL]T[NBuGly][NMeL]S(tBu)[NMeF][NMeL]D-Piperidide; lactam N-11), the apparent permeability coefficient (Papp) stood at 0.71 ×10⁻⁶ cm/s.

With `CC(C)C[C@@H]1NC(=O)[C@H](Cc2ccccc2)N(C)C(=O)[C@@H](C(C)C)NC(=O)C[C@@H](C(=O)N2CCCCC2)NC(=O)[C@H](CC(C)C)N(C)C(=O)[C@H](Cc2cccc(Cl)c2)N(C)C(=O)[C@H](COC[C@@H](C)O)NC(=O)[C@H](CC(C)C)N(C)C(=O)CN(C)C(=O)[C@H]([C@@H](C)O)NC(=O)[C@H](CC(C)C)N(C)C1=O` [AP72] ([dV][NMeF]L[NMeL]T[Sar][NMeL]S(Propyl(2R-OH))[NMePhe(3-Cl)][NMeL]D-Piperidide; lactam N-11), the Papp was 0.95 ×10⁻⁶ cm/s.

In the case of `CC[C@H](C)[C@@H]1NC(=O)[C@H](CC(C)C)N(C)C(=O)CCCN(C)C(=O)C[C@@H](C(=O)N2CCCCC2)NC(=O)[C@H](CC(C)C)N(C)C(=O)[C@H](CC(C)C)N(C)C(=O)[C@H]([C@@H](C)O)NC(=O)[C@H](CC(C)C)N(C)C(=O)[C@H](COC[C@@H](C)O)NC(=O)[C@H](Cc2cccc(Cl)c2)N(C)C(=O)[C@H](Cc2ccccc2)N(C)C1=O` [AP74] ([NMeGABA][NMeL]I[NMeF][NMePhe(3-Cl)]S(Propyl(2R-OH))[NMeL]T[NMeL][NMeL]D-Piperidide; lactam N-11), the apparent permeability (Papp) stood at 0.31 ×10⁻⁶ cm/s.

As to `CCCCN1CC(=O)N(C)[C@@H](CC(C)C)C(=O)N[C@H](C(=O)N2CCCCC2)CC(=O)N(C)[C@@H](C)C(=O)N[C@@H](COC[C@@H](C)O)C(=O)N(C)[C@@H](CC(C)C)C(=O)N(C)[C@@H](Cc2cccc(Cl)c2)C(=O)N[C@@H](CC(C)C)C(=O)N(C)[C@@H](Cc2ccccc2)C(=O)N(C)[C@@H]([C@@H](C)CC)C(=O)N[C@@H]([C@@H](C)O)C1=O` [AP75] ([NMeA]S(Propyl(2R-OH))[NMeL][NMePhe(3-Cl)]L[NMeF][NMeI]T[NBuGly][NMeL]D-Piperidide; lactam N-11), the Papp is 1.1 ×10⁻⁶ cm/s.

For the compound `CC[C@H](C)[C@H]1C(=O)N[C@@H]([C@@H](C)O)C(=O)N(C)CC(=O)N(C)[C@@H](CC(C)C)C(=O)N[C@H](C(=O)N2CCCCC2)CC(=O)N(C)[C@@H](C(C)C)C(=O)N[C@@H](CC(C)C)C(=O)N(C)[C@@H](CC(C)C)C(=O)N(C)[C@@H](Cc2ccccc2)C(=O)N[C@@H](COC[C@@H](C)O)C(=O)N(C)[C@@H](Cc2ccccc2)C(=O)N1C` [AP76] ([NMeV]L[NMeL][NMeF]S(Propyl(2R-OH))[NMeF][NMeI]T[Sar][NMeL]D-Piperidide; lactam N-11), the Papp worked out at 0.84 ×10⁻⁶ cm/s.

For `CCCCN1CC(=O)N(C)[C@@H](Cc2ccccc2)C(=O)N(C)[C@@H](CC(C)C)C(=O)N[C@@H](COC(C)(C)C)C(=O)N(C)[C@@H](CC(C)C)C(=O)N[C@H](C(=O)N2CCCCC2)CC(=O)N(C)CC(=O)N(C)[C@@H](Cc2cccc(Cl)c2)C(=O)N[C@@H](COC[C@@H](C)O)C(=O)N(C)[C@@H](CC(C)C)C(=O)N[C@@H]([C@@H](C)O)C1=O` [AP77] ([Sar][NMePhe(3-Cl)]S(Propyl(2R-OH))[NMeL]T[NBuGly][NMeF][NMeL]S(tBu)[NMeL]D-Piperidide; lactam N-11), the Papp is 1 ×10⁻⁶ cm/s.

For `CCCCN1CC(=O)N(C)[C@@H](Cc2cccc(Cl)c2)C(=O)N(C)[C@@H](CC(C)C)C(=O)N[C@@H](COC[C@@H](C)O)C(=O)N(C)[C@@H](CC(C)C)C(=O)N[C@H](C(=O)N2CCCCC2)CC(=O)N(C)CC(=O)N(C)[C@@H](Cc2ccccc2)C(=O)N[C@@H]([C@@H](C)CC)C(=O)N(C)[C@@H](CC(C)C)C(=O)N[C@@H]([C@@H](C)O)C1=O` [AP78] ([Sar][NMeF]I[NMeL]T[NBuGly][NMePhe(3-Cl)][NMeL]S(Propyl(2R-OH))[NMeL]D-Piperidide; lactam N-11), the Papp was 0.24 ×10⁻⁶ cm/s.

In the case of `CC[C@H](C)[C@H]1C(=O)N[C@@H]([C@@H](C)O)C(=O)N(C)CC(=O)N(C)[C@@H](CC(C)C)C(=O)N[C@H](C(=O)N2CCCCC2)CC(=O)N(C)[C@@H](C(C)C)C(=O)N[C@@H](COC[C@@H](C)O)C(=O)N(C)[C@@H](CC(C)C)C(=O)N(C)[C@@H](Cc2cccc(Cl)c2)C(=O)N[C@@H](CC(C)C)C(=O)N(C)[C@@H](Cc2ccccc2)C(=O)N1C` [AP79] ([NMeV]S(Propyl(2R-OH))[NMeL][NMePhe(3-Cl)]L[NMeF][NMeI]T[Sar][NMeL]D-Piperidide; lactam N-11), the apparent permeability coefficient (Papp) came out at 1.1 ×10⁻⁶ cm/s.
